Measured values as given in patent US8293269B2, “Compositions for promoting sleep” (Taiyo Kagaku Co., Ltd., priority 2000, dated 2012).

Test system: mice
Experiment: acute toxic test using mice
Format: in vivo
Settings: administered orally at 5 g/kg
From the text: The safety of the theanine used in the present invention is high. […] In addition, especially L-theanine is known as the main component of deliciousness (umami) of tea, and is also used as a food additive for the use of deliciousness, and there is no limitation in its amount according to the Japanese Food Sanitation Act. Moreover, contrary to the conventional medicament for ameliorating sleep disorders, since dependence on the theanine is not found at all, the sleep can be promoted safely and effectively by the use of the composition, food or medicament of the present invention, whereby moderating or ameliorating the sleep disorders.

In the case of `CCNC(=O)CC[C@H](N)C(=O)O` [theanine, γ-glutamylethylamide], the “abnormality in the general state and body weight” value is reported as “no abnormality” and the death cases is reported as “no death cases”.
